Values quoted from earlier work in US5811459A, “Ortho substituted aromatic compounds useful as antagonists of the pain enhancing effects of E-type prostaglandins” (Zeneca Limited, priority 1994, dated 1998).

Key:
[1] = tested on: cat trachea or chick ileum; conditions: other tissues such as the cat trachea or chick ileum
[2] = tested on: guinea pig ileum or dog fundus; conditions: some tissues such as guinea pig ileum or dog fundus

Compound: CC(=O)NNC(=O)N1Cc2ccccc2Oc2ccc(Cl)cc21 [SC-19220]
- block of the effect of PGE2 [1]: not on other tissues
- block of the effect of PGE2 [2]: blocks the effect of PGE2
